The results in this text go back to US20240270821A1, “GIP/GLP1/GCG TRI-RECEPTOR AGONISTS AND USES THEREOF” (priority 2023, published 2024).

Starred links: 1 amine or outer side, 2 acyl side, 3 side chain; linkers in the order of their positions; H or OH if unused. Non-standard residues stand in square brackets, D forms with d. Groups on a side chain read outwards from the residue. *: point of attachment. C20 diacid = O=C(O)CCCCCCCCCCCCCCCCCCC(=O)*; C18 diacid = O=C(O)CCCCCCCCCCCCCCCCC(=O)*; γGlu = O=C(O)[C@H](CCC(=O)[*:2])N[*:1]; αMeL = CC(C)C[C@](C)(N)C(=O)O; Orn = NCCC[C@H](N)C(=O)O; AEEA = NCCOCCOCC(=O)O; Aib = CC(C)(N)C(=O)O

What all share (assay type): cell-based
Assay [1] deals with T1, hGIPR (Homo sapiens, UniProt P48546).
T1 sequence (P48546 22-466): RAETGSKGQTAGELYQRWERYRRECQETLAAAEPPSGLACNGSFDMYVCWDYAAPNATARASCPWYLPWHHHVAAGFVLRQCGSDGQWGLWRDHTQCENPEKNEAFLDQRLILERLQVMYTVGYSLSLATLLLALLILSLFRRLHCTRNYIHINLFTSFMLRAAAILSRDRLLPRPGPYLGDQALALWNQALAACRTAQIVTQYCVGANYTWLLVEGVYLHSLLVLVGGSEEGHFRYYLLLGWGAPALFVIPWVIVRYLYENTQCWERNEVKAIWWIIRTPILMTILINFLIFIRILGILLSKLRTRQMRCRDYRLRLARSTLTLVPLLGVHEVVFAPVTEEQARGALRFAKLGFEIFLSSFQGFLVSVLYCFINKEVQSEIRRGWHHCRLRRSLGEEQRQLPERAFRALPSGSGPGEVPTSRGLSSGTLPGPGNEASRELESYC
The experiment in a line: Functional cAMP activity in the presence of 1% HSA. The conditions noted are these: read-out: cAMP Rel EC50, hGIPR.

Assay [2] deals with T2, hGLP-1R (Homo sapiens, UniProt P43220). The assay can be described thus: Functional cAMP activity in the presence of 1% HSA. The conditions noted are these: read-out: cAMP Rel EC50, hGLP-1R.
T2 sequence (P43220 24-463): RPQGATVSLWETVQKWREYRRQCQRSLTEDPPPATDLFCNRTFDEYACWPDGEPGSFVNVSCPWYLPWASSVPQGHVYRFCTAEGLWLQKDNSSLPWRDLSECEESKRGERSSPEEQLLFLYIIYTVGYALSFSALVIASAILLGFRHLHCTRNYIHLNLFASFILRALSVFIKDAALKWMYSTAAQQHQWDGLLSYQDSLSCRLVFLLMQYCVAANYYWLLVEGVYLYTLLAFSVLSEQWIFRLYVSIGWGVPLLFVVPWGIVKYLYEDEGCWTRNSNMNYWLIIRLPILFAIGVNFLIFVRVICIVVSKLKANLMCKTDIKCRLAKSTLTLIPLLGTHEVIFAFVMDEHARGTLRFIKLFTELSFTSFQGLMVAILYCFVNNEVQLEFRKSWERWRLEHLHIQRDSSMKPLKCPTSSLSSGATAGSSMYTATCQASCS
The next assay has as its target human GcgR (Homo sapiens, UniProt P47871). The experiment in a line: Functional cAMP activity in the presence of 1% HSA. The conditions noted are these: read-out: cAMP Rel EC50, hGcgR.
Assay [3] addresses T1, hGIPR. The assay can be described thus: Functional cAMP activation in the presence of 0.1% casein (no HSA). The conditions noted are these: in the presence of 0.1% casein (no HSA); geometric mean; read-out: Relative cAMP EC50, hGIPR.
Protocol: After a 30-minute incubation at 37° C., the resulting increase in intracellular cAMP is quantitatively determined using the CisBio CAMP Dynamic 2 HTRF Assay Kit (62AM4PEJ). Briefly, cAMP levels within the cell are detected by adding the cAMP-d2 conjugate in cell lysis buffer followed by the antibody anti-cAMP-Eu^3+-Cryptate, also in cell lysis buffer.
Intracellular cAMP levels are determined by extrapolation using a standard curve. Dose response curves of compounds are plotted as the percentage of stimulation normalized to minimum (buffer only) and maximum (maximum concentration of each control ligand) values and analyzed using a four parameter non-linear regression fit with a variable slope (Genedata Screener 13). EC50 is the concentration of compound causing half-maximal simulation in a dose response curve. Each relative EC50 value for the Geometric mean calculation is determined from a curve fitting.
For assay [4], the target named is T2, hGLP-1R. The description is as above. The note with it: in the presence of 0.1% casein (no HSA); geometric mean; read-out: Relative cAMP EC50, hGLP-1R.
The next assay concerns the target hGcgR (Homo sapiens, UniProt P47871). The description is as above. The note with it: in the presence of 0.1% casein (no HSA); geometric mean; read-out: Relative cAMP EC50, hGcgR.
The target in another assay is human GLP1-R (Homo sapiens, UniProt P43220). The experiment in a line: GLP1-R internalization assay in HEK293 cells. The note with it: for EC50: HEK293 cells expressing SNAP-GLP-1R, read-out: GLP1R Internalization EC50; for Internalization % TOP: normalized to maximum concentration of GLP-1 (100%).
human GLP1-R, sequence (P43220 24-463): as above
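For Relative cAMP EC50, hGIPR in this document: intracellular cAMP rise after 30 min at 37 °C read by HTRF against a standard curve, scaled between buffer alone (0%) and top control ligand concentration (100%), four-parameter fit.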
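For Relative cAMP EC50, hGLP-1R in this document: intracellular cAMP rise after 30 min at 37 °C read by HTRF, normalized between buffer only (0%) and maximal control ligand (100%), four-parameter variable-slope fit.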
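For Relative cAMP EC50, hGcgR in this document: intracellular cAMP rise after 30 min at 37 °C, read by HTRF against a cAMP standard curve, scaled from buffer only (0%) to maximal control ligand response (100%).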

hGcgR, sequence (P47871 26-477): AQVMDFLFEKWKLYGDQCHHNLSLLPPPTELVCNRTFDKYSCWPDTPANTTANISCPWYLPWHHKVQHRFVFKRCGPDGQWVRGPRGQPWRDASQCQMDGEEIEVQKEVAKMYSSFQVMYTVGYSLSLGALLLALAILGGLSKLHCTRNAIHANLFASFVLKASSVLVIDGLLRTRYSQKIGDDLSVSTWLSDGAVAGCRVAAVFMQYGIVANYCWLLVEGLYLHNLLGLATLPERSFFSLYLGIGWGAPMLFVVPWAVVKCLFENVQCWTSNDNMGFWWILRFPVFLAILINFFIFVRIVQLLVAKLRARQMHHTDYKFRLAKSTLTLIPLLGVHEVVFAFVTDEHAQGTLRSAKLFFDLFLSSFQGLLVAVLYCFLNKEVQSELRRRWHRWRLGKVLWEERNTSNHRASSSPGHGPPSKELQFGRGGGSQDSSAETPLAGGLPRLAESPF
human GcgR, sequence (P47871 26-477): as above

On to “H-Y[Aib]QGTFTSDFSK[αMeL]LDKK([AEEA-γGlu-C18 diacid])AQ[Aib]QFIEYLLEGGPSSGAPPPSEG-NH2 [Example 51]”, for which the EC50 came to 98.4 nM on hGIPR [1]; 1210 nM on hGLP-1R [2]; 856 nM on human GcgR; 0.421 nM on hGIPR [3]; 5.8 nM at hGLP-1R [4]; 5.15 nM on hGcgR. Moreover, the EC50 on human GLP1-R was found to be 89.2 nM. Further, the “Internalization % TOP” value at human GLP1-R came out at 55.7%.
On to “H-Y[Aib]QGTFTSDFS[Orn][αMeL]LDKK([AEEA-γGlu-C18 diacid])AQ[Aib]AFIEYLLEGGHSSGEPPPGGS-NH2 [Example 164]”, for which the EC50 was 59 nM at hGIPR [1]; 962 nM at hGLP-1R [2]; 411 nM on human GcgR; 0.302 nM on hGIPR [3]; 5.02 nM on hGLP-1R [4]; 2.92 nM on hGcgR. Also, the EC50 at human GLP1-R is 45.9 nM. The “Internalization % TOP” value on human GLP1-R was determined as 46.5%.
As to “H-Y[Aib]QGTFTSDFSK[αMeL]LDKK([γGlu-γGlu-C18 diacid])AQ[Aib]AFIEYLLEGGPSSGAPPPSEG-NH2 [Example 58]”, the EC50 at hGIPR [1] came to 3.75 nM; on hGLP-1R [2], 20.7 nM; at human GcgR it was 115 nM; on hGIPR [3] it was 0.175 nM; on hGLP-1R [4] it was 2.93 nM; on hGcgR, 4.86 nM. The EC50 on human GLP1-R is 56.2 nM. In addition, the “Internalization % TOP” value at human GLP1-R was 78.1%.
Regarding “H-Y[Aib]QGTFTSDFS[Orn][αMeL]LDKK([AEEA-γGlu-C18 diacid])AQ[Aib]AFIEWLLEGGTSSGAPPPSGE-NH2 [Example 175]”, the EC50 at hGIPR [1] is 29.6 nM; on hGLP-1R [2], 386 nM; on human GcgR, 579 nM; at hGIPR [3] it was 0.218 nM; on hGLP-1R [4], 4 nM; on hGcgR, 4.92 nM. Moreover, the EC50 on human GLP1-R was 116 nM. Further, the “Internalization % TOP” value at human GLP1-R is recorded as 49.2%.
As to “H-Y[Aib]QGTFTSDFSK[αMeL]LDKK([AEEA-γGlu-C18 diacid])AQ[Aib]AFIEYLIEGGPSSGAPPPSEG-NH2 [Example 49]”, the EC50 was found to be 44.9 nM at hGIPR [1]; 151 nM on hGLP-1R [2]; 1310 nM at human GcgR; 0.324 nM at hGIPR [3]; 0.706 nM on hGLP-1R [4]; 5.54 nM at hGcgR. Moreover, the EC50 at human GLP1-R worked out at 37.2 nM. For the same substance, the “Internalization % TOP” value at human GLP1-R is 53.2%.
For the substance “H-Y[Aib]QGTFTSDFS[Orn][αMeL]LDKK([AEEA-γGlu-C18 diacid])AQ[Aib]AFIEWLLEGGSSSGAPPPSGE-NH2 [Example 172]”, the EC50 on hGIPR [1] is 29.3 nM; on hGLP-1R [2] it was 457 nM; on human GcgR, 605 nM; at hGIPR [3], 0.174 nM; on hGLP-1R [4] it was 3.5 nM; on hGcgR, 3.38 nM. The EC50 on human GLP1-R was found to be 121 nM. At human GLP1-R, the “Internalization % TOP” value turned out to be 41.4%.
On to “H-Y[Aib]QGTFTSDFSK[αMeL]LDKK([AEEA-γGlu-C20 diacid])AQ[Aib]AFIEYLLAGGPSSGAPPPGGE-NH2 [Example 15]”, for which the EC50 on hGIPR [1] is 36.3 nM; at hGLP-1R [2], 276 nM; on human GcgR it was 1980 nM; at hGIPR [3] it was 0.201 nM; at hGLP-1R [4], 1.77 nM; on hGcgR it was 11.1 nM. Also, the EC50 at human GLP1-R amounted to 79 nM. Besides, the “Internalization % TOP” value on human GLP1-R came to 74.9%.
Regarding “H-Y[Aib]QGTFTSDFS[Orn][αMeL]LDKK([AEEA-AEEA-γGlu-C18 diacid])AQ[Aib]AFIEYLLEGGPSSGAPPPSGE-NH2 [Example 107]”, the EC50 on hGIPR [1] came out at 61.3 nM; on hGLP-1R [2] it was 1110 nM; on human GcgR, 1690 nM; at hGIPR [3] it was 0.426 nM; at hGLP-1R [4] it was 8.5 nM; on hGcgR, 10.8 nM. Further, the concentration giving a half-maximal response (EC50) at human GLP1-R turned out to be 150 nM. Besides, the “Internalization % TOP” value at human GLP1-R came out at 45.1%.

The term EC50 denotes the concentration needed to bring the measured effect to its halfway point.
